Results as given in patent US20230135635A1, “INHIBITORS OF ULK1/2 AND METHODS OF USING SAME” (SALK INSTITUTE FOR BIOLOGICAL STUDIES, priority 2020, published 2023).

biological target: T1, recombinant human ULK1 protein (1-649) (Homo sapiens, UniProt O75385); experiment: ULK1 inhibition assay (ADP Glo); assay type: biochemical; conditions: Table 1; 25 uM ATP, MBP substrate, one hour
T1 construct: recombinant human ULK1 protein (1-649, SignalChem #U01-11G); purchased SignalChem U01-11G
T1 sequence (O75385 1-649): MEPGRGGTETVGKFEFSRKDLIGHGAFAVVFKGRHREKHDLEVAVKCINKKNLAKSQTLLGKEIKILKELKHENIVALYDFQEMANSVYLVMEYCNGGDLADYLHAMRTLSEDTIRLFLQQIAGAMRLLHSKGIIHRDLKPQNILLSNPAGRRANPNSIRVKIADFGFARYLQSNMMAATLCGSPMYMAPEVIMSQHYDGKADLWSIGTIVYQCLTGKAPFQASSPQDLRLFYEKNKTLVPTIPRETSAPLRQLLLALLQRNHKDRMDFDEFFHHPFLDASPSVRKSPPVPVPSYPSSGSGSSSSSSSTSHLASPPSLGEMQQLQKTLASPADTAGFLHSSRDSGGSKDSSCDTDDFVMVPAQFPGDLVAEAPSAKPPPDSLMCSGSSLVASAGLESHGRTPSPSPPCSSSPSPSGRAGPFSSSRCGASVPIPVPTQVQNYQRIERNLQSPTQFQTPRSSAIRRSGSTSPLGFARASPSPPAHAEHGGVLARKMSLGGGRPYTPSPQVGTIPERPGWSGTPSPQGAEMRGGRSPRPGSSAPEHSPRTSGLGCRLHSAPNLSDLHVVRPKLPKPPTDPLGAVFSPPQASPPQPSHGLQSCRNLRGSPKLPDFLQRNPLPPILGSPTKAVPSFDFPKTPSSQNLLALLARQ
Description: Illustrative compounds of Formula I and related analogs are shown in Table 1 (along with their respective IC50 values for ULK1 inhibition assays). For ADP Glo assay, IC50s are represented nM, with A representing IC50<1 nM, B representing 10 nM>IC50>1 nM, and C representing IC50>10 nM. NT indicates the compound was not tested. ULK1 inhibition assays were performed in a 5 uL reaction volume containing 2 ug/mL recombinant human ULK1 protein (1-649, SignalChem #U01-11G) and 80 ug/mL myelin basic protein (MBP, Sigma-Aldrich #M1891) in the presence of 25 uM ATP (Sigma-Aldrich A7699). ULK 1 inhibition was assessed after one hour. Compounds were tested in triplicate in a 16-dose IC50 mode with 3-fold serial dilution and a starting dose of 30 uM. Staurosporine, a non-selective protein kinase inhibitor, was used in the assay as a positive control.
According to another embodiment, the present disclosure provides methods of producing the above-defined compounds. The compounds may be synthesized using any suitable techniques. Advantageously, these compounds are conveniently synthesized from readily available starting materials. Synthetic chemistry transformations and methodologies useful in synthesizing the compounds described herein are known in the art and include, for example, those described in R. Larock, Comprehensive Organic Transformations (1989); T. W. Greene and P. G. M. Wuts, Protective Groups in Organic Synthesis, 2d. Ed. (1991); L. Fieser and M. Fieser, Fieser and Fieser's Reagents for Organic Synthesis (1994); and L. Paquette, ed., Encyclopedia of Reagents for Organic Synthesis (1995).). In general, synthesis and measurements of ULK1 inhibitory activity of the compounds described herein was performed using method analogous to those previously described in PCT International Application No. PCT/US2015/046777 which is hereby incorporated by reference in its entirety.

`CNC(=O)c1ccccc1Nc1nc(Nc2ccc3c(c2)CCN(C)C3)ncc1Br` [Compound A135, 2-[5-Bromo-2-(2-methyl-1,2,3,4-tetrahydro-isoquinolin-6-ylamino)-pyrimidin-4-ylamino]-N-methyl-benzamide] and `CNC(=O)c1ccccc1Nc1nc(Nc2ccc3c(c2)CCN(S(N)(=O)=O)C3)ncc1Br` [Compound A140, 2-[5-Bromo-2-(2-sulfamoyl-1,2,3,4-tetrahydro-isoquinolin-6-ylamino)-pyrimidin-4-ylamino]-N-methyl-benzamide] cannot be ordered by IC50: over 10 nM for the first, over 10 nM for the second.

`COCCN1CCc2cc(Nc3ncc(C(F)(F)F)c(NC4CC4)n3)ccc2C1` [Compound A50] and `NCCN1CCc2cc(Nc3ncc(C(F)(F)F)c(NC4CC4)n3)ccc2C1` [Compound A34] cannot be ordered by IC50: under 1 nM for the first, under 1 nM for the second.

`CNC(=O)c1ccccc1Nc1nc(Nc2ccc3c(c2)CN(CC(=O)N2CCOCC2)CC3)ncc1Br` [Compound A148, 2-{5-Bromo-2-[2-(2-morpholin-4-yl-2-oxo-ethyl)-1,2,3,4-tetrahydro-isoquinolin-7-ylamino]-pyrimidin-4-ylamino}-N-methyl-benzamide] and `CNC(=O)c1ccccc1Nc1nc(Nc2ccc3c(c2)CCN(C(=O)CCN)C3)ncc1Br` [Compound A136, 2-{2-[2-(3-Amino-propionyl)-1,2,3,4-tetrahydro-isoquinolin-6-ylamino]-5-bromo-pyrimidin-4-ylamino}-N-methyl-benzamide] cannot be ordered by IC50: over 10 nM for the first, over 10 nM for the second.

`CS(=O)(=O)N1CCc2cc(Nc3ncc(C(F)(F)F)c(NC4CC4)n3)ccc2C1` [Compound A12] and `CCN1CCc2cc(Nc3ncc(C(F)(F)F)c(NC4CC4)n3)ccc2C1` [Compound A60] fall in the same range of IC50: 1 to 10 nM for the first, 1 to 10 nM for the second.

`OCCN1CCc2cc(Nc3ncc(C(F)(F)F)c(NC4CC4)n3)ccc2C1` [Compound A53] and `CSCCN1CCc2cc(Nc3ncc(C(F)(F)F)c(NC4CC4)n3)ccc2C1` [Compound A11] cannot be ordered by IC50: under 1 nM for the first, under 1 nM for the second.

`O=C(CN1CCc2ccc(Nc3ncc(C(F)(F)F)c(NC4CC4)n3)cc2C1)N1CCOCC1` [Compound A100] and `FC(F)(F)c1cnc(Nc2ccc3c(c2)CCN(CCN2CCOCC2)C3)nc1NC1CC1` [Compound A5] cannot be ordered by IC50: under 1 nM for the first, under 1 nM for the second.

First: CN1CCc2cc(Nc3ncc(C(N)=O)c(NC4CC4)n3)ccc2C1 [Compound A64]
Second: CC(C)(C)OC(=O)N1CCc2cc(Nc3ncc(C(=O)O)c(NC4CC4)n3)ccc2C1 [Compound A30]
The IC50 of the first is lower: under 1 nM for the first, over 10 nM for the second.

`CNC(=O)c1ccccc1Nc1nc(Nc2ccc3c(c2)CCN(Cc2ccncn2)C3)ncc1Br` [Compound A146, 2-[5-Bromo-2-(2-pyrimidin-4-ylmethyl-1,2,3,4-tetrahydro-isoquinolin-6-ylamino)-pyrimidin-4-ylamino]-N-methyl-benzamide] and `CNC(=O)c1ccccc1Nc1nc(Nc2ccc3c(c2)CCN(Cc2ccncc2)C3)ncc1Br` [Compound A131, 2-[5-Bromo-2-(2-pyridin-4-ylmethyl-1,2,3,4-tetrahydro-isoquinolin-6-ylamino)-pyrimidin-4-ylamino]-N-methyl-benzamide] cannot be ordered by IC50: over 10 nM for the first, over 10 nM for the second.

`O=C(C1CCN1)N1CCc2cc(Nc3ncc(C(F)(F)F)c(NC4CC4)n3)ccc2C1` (stereo not drawn) [Compound A90] and `CC(=O)N1CCc2ccc(Nc3ncc(C(F)(F)F)c(NC4CC4)n3)cc2C1` [Compound A98] fall in the same range of IC50: 1 to 10 nM for the first, 1 to 10 nM for the second.

`CNCC(=O)N1CCc2cc(Nc3ncc(Br)c(Nc4ccccc4C(=O)NC)n3)ccc2C1` [Compound A133, 2-{5-Bromo-2-[2-(2-methylamino-acetyl)-1,2,3,4-tetrahydro-isoquinolin-6-ylamino]-pyrimidin-4-ylamino}-N-methyl-benzamide] and `CNC(=O)c1ccccc1Nc1nc(Nc2ccc3c(c2)CN(S(N)(=O)=O)CC3)ncc1Br` [Compound A161, 2-[5-Bromo-2-(2-sulfamoyl-1,2,3,4-tetrahydro-isoquinolin-7-ylamino)-pyrimidin-4-ylamino]-N-methyl-benzamide] cannot be ordered by IC50: over 10 nM for the first, over 10 nM for the second.

First: FC(F)(F)c1cnc(Nc2ccc3c(c2)CN(Cc2cc[nH]c2)CC3)nc1NC1CC1 [Compound A94]
Second: FC(F)(F)c1cnc(Nc2ccc3c(c2)CN(Cc2cncnc2)CC3)nc1NC1CC1 [Compound A108]
The IC50 of the first is higher: 1 to 10 nM for the first, under 1 nM for the second.

`CNC(=O)c1ccccc1Nc1nc(Nc2ccc3c(c2)CCN(Cc2ccc(OC)cc2)C3)ncc1Br` [Compound A129, 2-{5-Bromo-2-[2-(4-methoxy-benzyl)-1,2,3,4-tetrahydro-isoquinolin-6-ylamino]-pyrimidin-4-ylamino}-N-methyl-benzamide] and `CNC(=O)c1ccccc1Nc1nc(Nc2ccc3c(c2)CCN(Cc2cccnc2)C3)ncc1Br` [Compound A130, 2-[5-Bromo-2-(2-pyridin-3-ylmethyl-1,2,3,4-tetrahydro-isoquinolin-6-ylamino)-pyrimidin-4-ylamino]-N-methyl-benzamide] cannot be ordered by IC50: over 10 nM for the first, over 10 nM for the second.

First: O=C(O)CCN1CCc2ccc(Nc3ncc(C(F)(F)F)c(NC4CC4)n3)cc2C1 [Compound A88]
Second: O=C(CCO)N1CCc2cc(Nc3ncc(C(F)(F)F)c(NC4CC4)n3)ccc2C1 [Compound A68]
The IC50 of the first is higher: 1 to 10 nM for the first, under 1 nM for the second.

`Cn1cc(CN2CCc3cc(Nc4ncc(C(F)(F)F)c(NC5CC5)n4)ccc3C2)cn1` [Compound A62] and `CNCC(=O)N1CCc2cc(Nc3ncc(C(F)(F)F)c(NC4CC4)n3)ccc2C1` [Compound A35] cannot be ordered by IC50: under 1 nM for the first, under 1 nM for the second.

In the case of `COC(=O)CC(=O)N1CCc2ccc(Nc3ncc(C(F)(F)F)c(NC4CC4)n3)cc2C1` [Compound A87], the IC50 is reported as 1 to 10 nM.

same assay, conditions: Table 2

First: COC(=O)c1ccccc1Oc1nc(Nc2ccc(N(C)C)cc2)ncc1Br [Compound B24]
Second: COC(=O)c1ccccc1Oc1nc(Nc2ccc(N3CCCC3)cc2)ncc1Br [Compound B27]
The IC50 of the first is lower: 100 to 1000 nM for the first, over 1000 nM for the second. The first is the more potent here.

`Oc1nc(Nc2ccc3c(c2)OCO3)ncc1C(F)(F)F` [Compound B53, 2-(Benzo[d][1,3]dioxol-5-ylamino)-5-(trifluoromethyl)pyrimidin-4-ol] and `COc1cc(Nc2ncc(Br)c(Oc3ccccc3C(=O)N3CCC3)n2)cc(OC)c1OC` [Compound B50] cannot be ordered by IC50: over 1000 nM for the first, over 1000 nM for the second.

same assay, conditions: Table 3

`CNC(=O)c1ccccc1Nc1cc(C#N)nc(Nc2cc(OC)c(OC)c(OC)c2)n1` [Compound E8, 2-((6-Cyano-2-((3,4,5-trimethoxyphenyl)amino)pyrimidin-4-yl)amino)-N-methylbenzamide] and `CNC(=O)c1ccc(Nc2nc(Nc3cc(OC)c(OC)c(OC)c3)ncc2Br)cc1` [Compound E27, 4-((5-Bromo-2-((3,4,5-trimethoxyphenyl)amino)pyrimidin-4-yl)amino)-N-methylbenzamide] cannot be ordered by IC50: over 100 nM for the first, over 100 nM for the second.

Compared with `COc1cc(Nc2ncc(Br)c(Nc3ccccc3COC(C)=O)n2)cc(OC)c1OC` [Compound C17], `COc1cc(Nc2ncc(Br)c(Nc3ccccc3CN(C)CCO)n2)cc(OC)c1OC` [Compound C23] is higher in IC50: 5 to 100 nM for the first, over 100 nM for the second.

First: OCCN(CCO)c1ccc(Nc2ncc(Br)c(Nc3ccccc3CO)n2)cc1 [Compound C16]
Second: COc1cc(Nc2ncc(Br)c(Nc3ccccc3CN(CCO)CCO)n2)cc(OC)c1OC [Compound C27]
The IC50 of the first is lower: under 5 nM for the first, 5 to 100 nM for the second. The first is the more potent here.

`COc1cc(Nc2ncc(Br)c(Nc3ccc(NC(=O)C4(C(=O)Nc5ccc(F)cc5)CC4)cc3F)n2)cc(OC)c1OC` [Compound E28, N-(4-((5-Bromo-2-((3,4,5-trimethoxyphenyl)amino)pyrimidin-4-yl)amino)-3-fluorophenyl)-N-(4-fluorophenyl)cyclopropane-1,1-dicarboxamide] and `COc1cc(Nc2ncc(Br)c(Oc3ccc(NC(=O)CC(=O)Nc4ccc(F)cc4)cc3F)n2)cc(OC)c1OC` [Compound C29, N^1-(4-((5-Bromo-2-((3,4,5-trimethoxyphenyl)amino)pyrimidin-4-yl)oxy)-3-fluorophenyl)-N^3-(4-fluorophenyl)malonamide] cannot be ordered by IC50: over 100 nM for the first, over 100 nM for the second.

With `CNC(=O)c1ccccc1Nc1nc(Nc2cccc(OC)c2)ncc1Br` [Compound E14, 2-((5-Bromo-2-((3-methoxyphenyl)amino)pyrimidin-4-yl)amino)-N-methylbenzamide] the IC50 was 5 to 100 nM.
